# According to patent US9944639B2, “Quinolizinone derivatives as PI3K inhibitors” (Lupin Limited, priority 2014, dated 2018):
# Biological target: T1, PI3Kδ (Homo sapiens, UniProt O00329)
# T1 construct: endogenous in cells; host or cells: Raji cells
# Experiment: Cell Based Assay for PI3Kδ (AKT phosphorylation, AlphaScreen SureFire, anti-IgM stimulated Raji cells)
# Conditions: compounds 1 h, anti-IgM (3 μg/mL) 30 min, phosphorylation of AKT, read-out: PI3Kδ inhibition IC50
# Procedure: [formula] C) Cell Based Assay for PI3Kδ
# Raji cells were maintained in RPMI-1640 (Sigma) supplemented with 10% fetal bovine serum (heat inactivated) (FBS, Sigma), 100 U penicillin/mL, and […] streptomycin and incubated at 37° C. and 5% CO2. Cells were centrifuged and resuspended in a complete medium. The required numbers of cells were transferred to a tissue culture flask containing medium without serum for 1 h at 37° C., 5% CO2. Following 1 h serum starvation, cells were centrifuged and resuspended in Hank's Balanced Salt Solution (HBSS, Sigma) and seeded in at a density of 1 million cells/well in 96-well clear bottom plates. The cells were treated with test compounds for 1 h at 37° C., 5% CO2. Cells were then stimulated with anti-IgM (3 μg/mL) for 30 min. After Stimulation, cells were lysed with 15 μL of 5× lysis buffer and the plate was shaken on an orbital plate shaker at approximately 300 rpm for 10 min. AlphaScreen® SureFire® Cell-based Assay (Perkin-Elmer, Waltham, Mass., USA) was performed to measure phosphorylation of AKT, in the cells according to the manufacturer's instructions. The luminescence was measured using an alpha technology-compatible plate reader BMG Labtech, Germany) at 520-620 nm. Percentage inhibition was calculated according to formula: […]
# IC50 values were calculated by plotting % inhibition against the respective concentrations of test compounds using GraphPad Prism 5.
# T1 sequence (O00329 whole entry): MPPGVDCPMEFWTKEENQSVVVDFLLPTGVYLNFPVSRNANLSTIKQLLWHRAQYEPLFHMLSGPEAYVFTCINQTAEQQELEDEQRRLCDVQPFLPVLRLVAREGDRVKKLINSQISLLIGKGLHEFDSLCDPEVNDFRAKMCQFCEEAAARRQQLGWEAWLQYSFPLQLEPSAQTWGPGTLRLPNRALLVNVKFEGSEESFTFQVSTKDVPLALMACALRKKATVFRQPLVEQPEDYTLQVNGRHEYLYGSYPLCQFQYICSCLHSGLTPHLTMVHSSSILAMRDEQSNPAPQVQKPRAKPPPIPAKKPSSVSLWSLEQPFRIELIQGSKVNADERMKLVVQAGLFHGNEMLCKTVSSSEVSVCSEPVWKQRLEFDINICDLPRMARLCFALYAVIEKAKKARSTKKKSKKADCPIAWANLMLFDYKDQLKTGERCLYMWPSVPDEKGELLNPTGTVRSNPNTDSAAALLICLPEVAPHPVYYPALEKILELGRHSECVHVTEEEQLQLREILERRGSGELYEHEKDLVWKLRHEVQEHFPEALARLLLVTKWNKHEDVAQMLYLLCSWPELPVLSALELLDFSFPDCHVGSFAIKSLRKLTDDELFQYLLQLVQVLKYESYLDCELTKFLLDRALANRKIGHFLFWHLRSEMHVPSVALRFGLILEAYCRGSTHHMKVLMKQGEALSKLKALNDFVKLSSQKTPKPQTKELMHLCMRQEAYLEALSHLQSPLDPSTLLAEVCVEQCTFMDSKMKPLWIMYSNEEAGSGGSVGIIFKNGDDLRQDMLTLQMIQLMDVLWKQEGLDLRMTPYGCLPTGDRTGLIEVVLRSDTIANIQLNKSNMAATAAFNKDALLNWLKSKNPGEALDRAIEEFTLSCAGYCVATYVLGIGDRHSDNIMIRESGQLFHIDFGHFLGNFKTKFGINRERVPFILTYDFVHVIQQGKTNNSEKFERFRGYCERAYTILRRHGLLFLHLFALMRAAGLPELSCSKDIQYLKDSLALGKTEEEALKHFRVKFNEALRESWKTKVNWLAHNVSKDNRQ
# T1 sequence (P27986 whole entry partner): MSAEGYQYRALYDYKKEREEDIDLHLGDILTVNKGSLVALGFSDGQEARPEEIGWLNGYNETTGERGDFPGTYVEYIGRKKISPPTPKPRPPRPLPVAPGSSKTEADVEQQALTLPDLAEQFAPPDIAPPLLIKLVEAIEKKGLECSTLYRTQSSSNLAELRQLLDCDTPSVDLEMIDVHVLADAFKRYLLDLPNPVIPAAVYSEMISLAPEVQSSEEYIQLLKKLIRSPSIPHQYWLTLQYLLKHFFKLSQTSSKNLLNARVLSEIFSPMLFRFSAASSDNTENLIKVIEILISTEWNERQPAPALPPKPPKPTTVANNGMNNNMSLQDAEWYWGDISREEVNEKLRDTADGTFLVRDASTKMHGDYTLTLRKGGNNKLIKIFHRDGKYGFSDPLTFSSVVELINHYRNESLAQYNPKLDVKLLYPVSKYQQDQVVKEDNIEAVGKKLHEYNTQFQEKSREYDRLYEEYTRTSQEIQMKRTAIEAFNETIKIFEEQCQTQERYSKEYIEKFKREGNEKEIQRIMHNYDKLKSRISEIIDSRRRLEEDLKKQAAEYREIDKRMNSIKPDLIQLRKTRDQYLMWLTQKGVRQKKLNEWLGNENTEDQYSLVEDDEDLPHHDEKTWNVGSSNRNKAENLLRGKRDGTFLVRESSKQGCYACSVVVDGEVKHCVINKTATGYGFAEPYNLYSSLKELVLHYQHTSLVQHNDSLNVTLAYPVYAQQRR
row,Compound,IC50 [nM]
1,"C[C@H](Nc1ncnc(N)c1C#N)c1cc2ccccn2c(=O)c1-c1ccccc1 (single isomer, unassigned) [Compound 4a, 4-Amino-6-((1-(4-oxo-3-phenyl-4H-quinolizin-2-yl)ethyl)amino)pyrimidine-5-carbonitrile]",11 to 50
2,"C[C@H](Nc1ncnc2[nH]cnc12)c1cc2ccccn2c(=O)c1-c1cccc(F)c1 (single isomer, unassigned) [Compound 5a, 2-(1-((9H-purin-6-yl)amino)ethyl)-3-(3-fluorophenyl)-4H-quinolizin-4-one]",51 to 250
3,"C[C@H](Nc1ncnc(N)c1C#N)c1cc2ccccn2c(=O)c1-c1cccc(F)c1 (single isomer, unassigned) [Compound 6a, 4-Amino-6-((1-(3-(3-fluorophenyl)-4-oxo-4H-quinolizin-2-yl)ethyl)amino)-pyrimidine-5-carbonitrile]",0.1 to 10
4,"Cc1cccc2cc([C@H](C)Nc3nc(N)nc4[nH]cnc34)c(-c3ccccc3)c(=O)n12 (single isomer, unassigned) [Compound 8a, 2-(1-((2-Amino-9H-purin-6-yl)amino)ethyl)-6-methyl-3-phenyl-4H-quinolizin-4-one]",0.1 to 10
5,"Cc1cccc2cc([C@H](C)Nc3nc(F)nc4[nH]cnc34)c(-c3ccccc3)c(=O)n12 (single isomer, unassigned) [Compound 9a, 2-(1-((2-Fluoro-9H-purin-6-yl)amino)ethyl)-6-methyl-3-phenyl-4H-quinolizin-4-one]",0.1 to 10
6,"Cc1cccc2cc([C@H](C)Nc3ncnc(N)c3C#N)c(-c3cccc(F)c3)c(=O)n12 (single isomer, unassigned) [Compound 10a, 4-Amino-6-((1-(3-(3-fluorophenyl)-6-methyl-4-oxo-4H-quinolizin-2-yl)ethyl)amino)pyrimidine-5-carbonitrile]",0.1 to 10

# Results, then the compound that gave them:
row,IC50 [nM],Compound
1,0.1 to 10,"Cc1cccc2cc([C@H](C)Nc3ncnc4[nH]cnc34)c(-c3cccc(F)c3)c(=O)n12 (single isomer, unassigned) [Compound 11a, 2-(1-((9H-purin-6-yl)amino)ethyl)-3-(3-fluorophenyl)-6-methyl-4H-quinolizin-4-one]"
2,0.1 to 10,"Cc1cccc2cc([C@H](C)Nc3nc(N)nc4[nH]cnc34)c(-c3cccc(F)c3)c(=O)n12 (single isomer, unassigned) [Compound 12a, 2-(1-((2-Amino-9H-purin-6-yl)amino)ethyl)-3-(3-fluorophenyl)-6-methyl-4H-quinolizin-4-one]"
3,11 to 50,"C[C@H](Nc1ncnc(N)c1C#N)c1cc2ccc(F)cn2c(=O)c1-c1ccccc1 (single isomer, unassigned) [Compound 14a]"
4,11 to 50,"C[C@H](Nc1nc(N)nc2[nH]cnc12)c1cc2ccc(F)cn2c(=O)c1-c1cccc(F)c1 (single isomer, unassigned) [Compound 15a, 2-(1-((2-Amino-9H-purin-6-yl)amino)ethyl)-7-fluoro-3-(3-fluorophenyl)-4H-quinolizin-4-one]"
5,0.1 to 10,"C[C@H](Nc1ncnc(N)c1C#N)c1cc2ccc(F)cn2c(=O)c1-c1cccc(F)c1 (single isomer, unassigned) [Compound 16a, 4-Amino-6-((1-(7-fluoro-3-(3-fluorophenyl)-4-oxo-4H-quinolizin-2-yl)ethyl)amino)pyrimidine-5-carbonitrile]"
6,0.1 to 10,"Cc1cccc2cc([C@H](C)Nc3ncnc(N)c3C#N)c(-c3cc(F)cc(F)c3)c(=O)n12 (single isomer, unassigned) [Compound 17a, 4-Amino-6-((1-(3-(3,5-difluorophenyl)-6-methyl-4-oxo-4H-quinolizin-2-yl)ethyl)amino)pyrimidine-5-carbonitrile]"
7,0.1 to 10,"Cc1cccc2cc([C@H](C)Nc3nc(N)nc4[nH]cnc34)c(-c3cc(F)cc(F)c3)c(=O)n12 (single isomer, unassigned) [Compound 18a, 2-(1-((2-amino-9H-purin-6-yl)amino)ethyl)-3-(3,5-difluorophenyl)-6-methyl-4H-quinolizin-4-one]"
